Tests used:
[1] = system: CFA-induced mechanical hyperalgesia; test: Anti-hyperalgesia in the Complete Freund's Adjuvant (CFA) model of inflammatory pain, Randall-Selitto paw pressure; type: in vivo, Male Sprague-Dawley rats; conditions: rat, injured paw, Pre-CFA 175 ± 4 g, Post-CFA 100 ± 3 g, cut-off 260 g, mean ± SEM, p < 0.05 vs Post-CFA
[2] = molecular target: human CB2 receptor (hCB2) (Homo sapiens, UniProt P34972); test: cell-based; type: cell-based; conditions: intracellular cAMP, CHO-K1 cells, NKH-477 prestimulated, + agonist, − inverse agonist
[3] = molecular target: T1, rat CB2 receptor (rCB2) (Rattus norvegicus, UniProt Q9QZN9); test: cell-based; type: cell-based; conditions: intracellular cAMP, CHO-K1 cells, NKH-477 prestimulated, + agonist, − inverse agonist
T1 sequence (Q9QZN9 1-360): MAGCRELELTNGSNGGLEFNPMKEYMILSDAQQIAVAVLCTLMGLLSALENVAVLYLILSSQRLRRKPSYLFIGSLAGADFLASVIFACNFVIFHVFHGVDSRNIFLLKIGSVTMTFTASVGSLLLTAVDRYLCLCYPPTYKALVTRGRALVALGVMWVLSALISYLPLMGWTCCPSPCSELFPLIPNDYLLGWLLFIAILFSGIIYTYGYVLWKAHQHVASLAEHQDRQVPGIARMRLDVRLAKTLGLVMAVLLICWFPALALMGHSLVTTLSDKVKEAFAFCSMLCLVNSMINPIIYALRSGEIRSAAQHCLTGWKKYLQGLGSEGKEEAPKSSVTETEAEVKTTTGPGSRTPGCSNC

[4] = molecular target: human CB1 receptor (hCB1) (Homo sapiens, UniProt P21554); test: cAMP assay (LANCE TR-FRET) in CHO-K1 cells expressing hCB1; type: cell-based; conditions: intracellular cAMP, NKH-477 prestimulated, + agonist, − inverse agonist
Chain of human CB1 receptor (hCB1) (P21554 whole entry): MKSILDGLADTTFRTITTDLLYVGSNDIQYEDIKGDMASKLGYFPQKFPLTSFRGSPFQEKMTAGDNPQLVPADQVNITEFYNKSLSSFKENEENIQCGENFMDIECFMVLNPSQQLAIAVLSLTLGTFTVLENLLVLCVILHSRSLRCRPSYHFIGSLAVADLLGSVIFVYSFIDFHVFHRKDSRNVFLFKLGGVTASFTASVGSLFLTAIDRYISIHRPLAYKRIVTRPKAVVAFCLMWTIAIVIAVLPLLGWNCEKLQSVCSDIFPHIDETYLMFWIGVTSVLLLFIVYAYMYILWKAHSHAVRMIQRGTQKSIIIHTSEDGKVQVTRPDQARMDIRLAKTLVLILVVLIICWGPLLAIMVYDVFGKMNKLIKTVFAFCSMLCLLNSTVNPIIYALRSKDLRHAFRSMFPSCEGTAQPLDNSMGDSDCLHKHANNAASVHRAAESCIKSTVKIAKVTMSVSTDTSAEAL

Chain of human CB2 receptor (hCB2) (P34972 whole entry): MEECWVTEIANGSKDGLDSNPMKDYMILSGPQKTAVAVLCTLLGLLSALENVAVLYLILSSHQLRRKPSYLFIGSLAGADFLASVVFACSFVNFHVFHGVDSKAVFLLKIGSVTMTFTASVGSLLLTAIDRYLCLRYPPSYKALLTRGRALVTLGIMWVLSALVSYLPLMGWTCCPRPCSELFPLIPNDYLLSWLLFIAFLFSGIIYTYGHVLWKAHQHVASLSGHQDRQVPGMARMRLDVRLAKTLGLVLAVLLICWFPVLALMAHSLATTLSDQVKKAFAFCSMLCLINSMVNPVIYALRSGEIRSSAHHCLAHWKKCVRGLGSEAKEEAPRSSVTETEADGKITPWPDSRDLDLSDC

Compound | Test Threshold ([1]; 0.1 mg/paw intrapaw) | hCB2 EC50 range [2] | rCB2 EC50 range [3] | hCB1 EC50 range [4] | Test Threshold ([1]; 1 mg/paw intrapaw) | EC50 ([2]; read-out: hCB2 EC50 range) | EC50 ([3]; read-out: rCB2 EC50 range) | EC50 ([4]; read-out: hCB1 EC50 range)
Cc1c(C(=O)c2cccc3ccccc23)c2cccc3c2n1[C@H](CN1CCOCC1)CO3 [WIN 55212, 2, reference compound] | 255 ± 5 g |  |  |  |  |  |  | 
O=C(NC1CCCC1)c1ccc2c(c1)N(S(=O)(=O)c1ccc(F)cc1)CCS2 [Example 45, N-cyclopentyl-4-(4-fluorophenylsulfonyl)-3,4-dihydro-2H-benzo[b][1,4]thiazine-6-carboxamide] |  | +B | +A | +D | 179 ± 19 g |  |  | 
CC(C)(C)c1noc(-c2ccc3c(c2)N(S(=O)(=O)c2ccc(F)cc2)CCS3)n1 [Example 85, 3-tert-butyl-5-(4-(4-fluorophenylsulfonyl)-3,4-dihydro-2H-benzo[b][1,4]thiazin-6-yl)-1,2,4-oxadiazole] |  | +B | +B | +D |  |  |  | 
CC(C)CNC(=O)c1ccc2c(c1)N(C(=O)c1ccccc1)CCS2 [Example 2, 4-benzoyl-N-isobutyl-3,4-dihydro-2H-benzo[b][1,4]thiazine-6-carboxamide] |  | −E | −C | −E |  |  |  | 
CNC(=O)[C@@H](NC(=O)c1ccc2c(c1)N(S(=O)(=O)c1ccc(F)cc1)CCC(C)(C)S2)C(C)(C)C [Example 103, (S)-N-(3,3-dimethyl-1-(methylamino)-1-oxobutan-2-yl)-5-(4-fluorophenyl-sulfonyl)-2,2-dimethyl-2,3,4,5-tetrahydrobenz0-[b][1,4]thiazepine-7-carboxamide] |  | +D | +C | −E |  |  |  | 
CC(C)CNC(=O)c1ccc2c(c1)N(S(=O)(=O)c1ccc(F)cc1)CCS2 [Example 43, 4-(4-fluorophenylsulfonyl)-N-isobutyl-3,4-dihydro-2H-benzo[b][1,4]thiazine-6-carboxamide] |  | +B | +A | +D |  |  |  | 
O=C(c1ccc2c(c1)N(S(=O)(=O)c1ccc(F)cc1)CCS2)N1CCCCC1 [Example 77] |  | +C | +C | +E |  |  |  | 
O=C(NC12CC3CC(CC(C3)C1)C2)c1ccc2c(c1)N(C(=O)c1ccccc1)CCS2 [Example 21, 4-benzoyl-N-(1-adamantyl)-3,4-dihydro-2H-benzo[b][1,4]thiazine-6-carboxamide] |  | −E | −D | −E |  |  |  | 
Cc1ccc(C(=O)N2CCSc3ccc(C(=O)NC4CCCC4)cc32)cc1 [Example 13, N-cyclopentyl-4-(4-methylbenzoyl)-3,4-dihydro-2H-benzo[b] [1,4]thiazine-6-carboxamide] |  |  |  |  |  | > 10 µM | > 10 µM | > 10 µM
O=C(NC1CCCC1)c1ccc2c(c1)N(S(=O)(=O)c1ccccc1)CCO2 [Example 61, N-cyclopentyl-4-(phenylsulfonyl)-3,4-dihydro-2H-benzo[b][1,4]oxazine-6-carboxamide] |  | +C | +C | +E |  |  |  | 

— US7960376B2, “Benzo-fused heterocycles” (priority 2007, dated 2011)
